3 molecules from publication PMC6249242, “Metabolic engineering of Escherichia coli for de novo biosynthesis of vitamin B12” (Nature Communications, 2018) can be followed below.

One series concerns the target T1, BluE (Rhodobacter capsulatus, UniProt D5AV17).
T1 construct: gene RCAP_rcc02055
Description: crude enzyme kinase assay, LC-MS of L-threonine phosphate; also in vivo HPLC. Type of series: biochemical.

In a further series the target is CobB (Rhodobacter capsulatus, UniProt O68108). Description: in vitro amidation, LC-MS of HBAD. Type of series: biochemical.
Substrate in the series “purified protein”: C[C@@H](OP(=O)(O)O)[C@H](N)C(=O)O
Description: purified protein. Particulars: pH 6.8 PIPES, 37 °C, 500 µM pyridoxal phosphate (standard assay), substrate taken from the assay description.

Sequence of CobB (O68108 whole entry): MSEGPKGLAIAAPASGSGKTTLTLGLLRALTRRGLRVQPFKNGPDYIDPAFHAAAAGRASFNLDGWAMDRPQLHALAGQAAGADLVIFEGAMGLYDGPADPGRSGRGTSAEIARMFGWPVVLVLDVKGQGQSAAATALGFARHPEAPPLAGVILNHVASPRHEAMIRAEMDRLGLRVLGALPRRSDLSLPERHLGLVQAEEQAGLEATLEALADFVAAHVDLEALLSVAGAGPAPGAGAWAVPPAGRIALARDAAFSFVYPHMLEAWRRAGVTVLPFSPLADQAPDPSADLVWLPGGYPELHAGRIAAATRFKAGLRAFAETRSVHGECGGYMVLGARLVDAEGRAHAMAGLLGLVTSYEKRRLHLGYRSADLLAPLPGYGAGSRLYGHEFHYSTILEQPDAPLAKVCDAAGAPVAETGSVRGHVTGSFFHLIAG
T1 sequence (D5AV17 entry or part of it): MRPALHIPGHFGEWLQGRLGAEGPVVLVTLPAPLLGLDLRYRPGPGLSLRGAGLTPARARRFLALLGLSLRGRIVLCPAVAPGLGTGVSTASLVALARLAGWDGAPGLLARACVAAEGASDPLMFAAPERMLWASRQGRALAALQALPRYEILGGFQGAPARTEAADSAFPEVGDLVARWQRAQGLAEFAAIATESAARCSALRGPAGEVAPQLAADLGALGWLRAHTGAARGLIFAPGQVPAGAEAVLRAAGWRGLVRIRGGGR

In the case of `C[C@@H](O)[C@H](N)C(=O)O` [L-threonine], the “crude enzyme kinase assay, LC-MS of L-threonine phosphate; also in vivo HPLC” value on BluE is given as “crude BluE activity was confirmed via an in vitro assay”. For `C/C1=C2N=C(/C=C3\N/C(=C(/C)C4=NC(C)(C5N=C1C(C)(CCC(=O)O)C5CC(=O)O)C(C)(CC(=O)O)C4CCC(=O)O)C(C)(CC(=O)O)C3CCC(=O)O)C(C)(C)C/2CCC(=O)O` (stereo not drawn) [hydrogenobyrinic acid], the “in vitro amidation, LC-MS of HBAD” value on CobB is reported as “it was completely converted to HBAD by CobB enzyme from R. capsulatus in vitro”.

B1: RcCobC (Rhodobacter capsulatus SB 1003) (protein)
chain: MRDHGGNSDAARAQYGGEDWIDLSTGINRQPWPVPDLPAHVWTDLPTATAKAALLDAAAAAFGTPAPGVALAGAQQAIQLIPRLWAPGRARVLGPTYNEHAAALRAAGWQVEEVSTLGALAGADLAVVVNPNNPDGQRHPAAALRALSLQVGRLVVDESFADASPAASVTAKASRRMLVLRSFGKFYGLAGLRLGFVFADAATVAALSEMAGPWPVSGPALEIGRRALLDRNWAMATALRLGAETMRMDALAARAGWRLVGGTALFRTYATPDAAAAQDHLARARIWSRVFPYAADWLRLGLPGNESEWMRLEKALTNEL
In the case of B1, the Km in the series “purified protein” came out at 1890 µM.

For orientation: Km means the substrate concentration at which the rate is half of its maximum.
